According to US7692014B2, “Inhibitors of the HIV integrase enzyme” (Pfizer, Inc., priority 2004, dated 2010):
Like-named read-outs stand apart in the source and are kept apart here.

How the values were obtained:
[1] = biological target: T1, Full-length wild type HIV-1 integrase (SF1) (Human immunodeficiency virus type 1 group M subtype B, UniProt P04585); test: Integrase strand-transfer scintillation proximity assay; type: biochemical
T1 construct: made in house; host or cells: E. coli BL21 (DE3), pET24a vector
Source text: Integrase Strand-Transfer Scintillation Proximity Assay Oligonucleotides
The annealed product represents preprocessed viral ds-DNA derived from the LTR U5 sequence of the viral genome. A ds-DNA control to test for non-specific interactions was made using a 3′ di-deoxy derivative of oligonucleotide #1 annealed to oligonucleotide #2. The CA overhang at the 5′ end of the non-biotinylated strand of the ds-DNA was created artificially by using a complimentary DNA oligonucleotide shortened by 2 base pairs. This configuration eliminates the requisite 3′ processing step of the integrase enzyme prior to the strand-transfer mechanism.
Host ds-DNA was prepared as an unlabeled and [^3H]-thymidine labeled product from annealed oligonucleotide #3—5-[…]-3′ (SEQ ID NO: 3), and oligonucleotide #4—5′-[…]-3′ (SEQ ID NO: 4), both synthesized by TriLink BioTechnologies, Inc. (San Diego, Calif.). The annealed product had overhanging 3′ ends of poly(dA). […] The radiolabeled product was purified using a NENSORB cartridge and stored in stabilized aqueous solution (PerkinElmer).
Reagents: Streptavidin-coated polyvinyltoluene (PVT) SPA beads were purchased from Amersham Biosciences (Piscataway, N.J.). Cesium chloride was purchased from Shelton Scientific, Inc. (Shelton, Conn.). White, polystyrene, flat-bottom, non-binding surface, 96-well plates were purchased from Corning. All other buffer components were purchased from Sigma (St. Louis, Mo.) unless otherwise indicated. Enzyme Construction: Full-length wild type HIV-1 integrase (SF1) sequence (amino acids 1-288) was constructed in a pET24a vector (Novagen, Madison, Wis.). […] Enzyme Purification: Full length wild-type HIV Integrase was expressed in E.coli BL21 (DE3) cells and induced with 1 mM isopropyl-1 thio-β-D-galactopyranoside (IPTG) when cells reached an optical density between 0.8-1.0 at 600 nm. Cells were lysed by microfluidation in 50 mM HEPES pH 7.0, 75 mM NaCl, 5 mM DTT, 1 mM 4-(2-Aminoethyl)benzenesulfonylfluoride HCl (AEBSF). Lysate was then centrifuged 20 minutes at 11 k rpm in GSA rotor in Sorvall RC-5B at 4° C. Supernant was discarded and pellet resuspended in 50 mM HEPES pH 7.0, 750 mM NaCl, 5 mM DTT, 1 mM AEBSF and homogenized in a 40 mL Dounce homogenizer for 20 minutes on ice. Homogenate was then centrifuged 20 minutes at 11 k rpm in SS34 rotor in Sorvall RC-5B at 4° C. Supernant was discarded and pellet resuspended in 50 mM HEPES pH 7.0, 750 mM NaCl, 25 mM CHAPS, 5 mM DTT, 1 mM AEBSF. Preparation was then centrifuged 20 minutes at 11 k rpm in SS34 rotor in Sorvall RC-5B at 4° C.
Supernant was then diluted 1:1 with 50 mM HEPES pH 7.0, 25 mM CHAPS, 1 mM DTT, 1 mM AEBSF and loaded onto a Q-Sepharose column pre-equilibrated with 50 mM HEPES, pH 7.0, 375 mM NaCl, 25 mM CHAPS, 1 mM DTT, 1 mM AEBSF. The flow through peak was collected and NaCl diluted to 0.1 M with 50 mM HEPES pH 7.0, 25 mM CHAPS, 1 mM DTT, 0.5 mM AEBSF and loaded onto a SP-Sepharose column pre-equilibrated with 50 mM HEPES pH 7.0, 100 mM NaCl, 25 mM CHAPS, 1 mM DTT, 0.5 mM AEBSF. After washing the column with the equilibration buffer, a 100 to 400 mM NaCl gradient was run. The eluted integrase was concentrated and run on a S-300 gel diffusion column using 50 mM HEPES pH 7.0, 500 mM NaCl, 25 mM CHAPS, 1 mM DTT, 0.5 mM AEBSF. […] All columns were run in a 4° C. cold room.
Viral DNA Bead Preparation: Streptavidin-coated SPA beads were suspended to 20 mg/mL in 25 mM 3-morpholinopropanesulfonic acid (MOPS) (pH 7.2) and 1.0% NaN3.

[2] = system: RF strain of HIV-1 in CEM-SS cells; test: HIV-1 cell protection assay (XTT dye reduction); type: cell-based; settings: Human immunodeficiency virus 1, CEM-SS, 144 h, HIV-1 RF, six days
Protocol: HIV-1 Cell Protection Assay
The antiviral activities of potential modulator compounds (test compounds) were determined in HIV-1 cell protection assays using the RF strain of HIV-1, CEM-SS cells, and the XTT dye reduction method (Weislow, O. S. et al., J. Natl. Cancer Inst. 81: 577-586 (1989)). Subject cells were infected with HIV-1 RF virus at an moi of 0.025 to 0.819 or mock infected with medium only and added at 2×10^4 cells per well into 96 well plates containing half-log dilutions of test compounds. Six days later, 50 μl of XTT solution (1 mg/ml XTT tetrazolium and […] phenazine methosulfate) were added to the wells and the plates were reincubated for four hours. Viability, as determined by the amount of XTT formazan produced, was quantified spectrophotometrically by absorbance at 450 nm.
Data from CPE assays were expressed as the percent of formazan produced in compound-treated cells compared to formazan produced in wells of uninfected, compound-free cells. […] The therapeutic index was calculated by dividing the cytotoxicity (CC50) by the antiviral activity (EC50).

[3] = integrase strand-transfer SPA, read-out: IC50

Structure (SMILES) | IC50 [1, 3] [nM] | EC50 [2] [nM] | IC50 ([1]; IC50, integrase strand-transfer SPA) [nM]
COCCOCc1cn(Cc2ccc(F)cc2)c2cnc3c(=O)n(O)ccc3c12 [Example 9, 3-(4-fluorobenzyl)-7-hydroxy-1-[(2-methoxyethoxy)methyl]-3,7-dihydro-6H-pyrrolo[2,3-c]-1,7-naphthyridin-6-one] | 15 | 0.53 | –
C[C@@H](OCc1cn(Cc2ccc(F)cc2)c2cnc3c(=O)n(O)ccc3c12)c1ccccc1 [Example 38, 3-(4-fluorobenzyl)-7-hydroxy-1-{[(1R)-1-phenylethoxy]methyl}-3,7-dihydro-6H-pyrrolo[2,3-c]-1,7-naphthyridin-6-one] | 120 | 0.3 | –
CN(Cc1ccccc1)Cc1cn(Cc2ccc(F)cc2)c2cnc3c(=O)n(O)ccc3c12 [Example 54, 1-{[benzyl(methyl)amino]methyl}-3-(4-fluorobenzyl)-7-hydroxy-3,7-dihydro-6H-pyrrolo[2,3-c]-1,7-naphthyridin-6-one] | – | – | 13.5
O=c1c2ncc3c(c(CN4CCN5C[C@H](O)CC5C4)cn3Cc3ccc(F)cc3)c2ccn1O (stereo partly drawn) [Example 55, 3-(4-fluorobenzyl)-7-hydroxy-1-{[(7R)-7-hydroxyhexahydropyrrolo [1,2-a]pyrazin-2(1H)-yl]methyl}-3,7-dihydro-6H-pyrrolo[2,3-c]-1,7-naphthyridin-6-one] | 7 | – | –
O=C1NC[C@@H]2CCN(Cc3cn(Cc4ccc(F)cc4)c4cnc5c(=O)n(O)ccc5c34)C[C@H]12 [Example 56, 3-(4-fluorobenzyl)-7-hydroxy-1-{[(3aR,7aR)-3-oxooctahydro-5H-pyrrolo[3,4-c]pyridin-5-yl]methyl}-3,7-dihydro-6H-pyrrolo[2,3-c]-1,7-naphthyridin-6-one] | 11.5 | – | –
O=c1c2ncc3c(c(CN4CCOCC4)cn3Cc3ccc(F)cc3)c2ccn1O [Example 57, 3-(4-fluorobenzyl)-7-hydroxy-1-(morpholin-4-ylmethyl)-3,7-dihydro-6H-pyrrolo[2,3-c]-1,7-naphthyridin-6-one] | 7 | – | –
O=c1c2ncc3c(c(CN4CCN(CCN5CCOCC5)CC4)cn3Cc3ccc(F)cc3)c2ccn1O [Example 58, 3-(4-fluorobenzyl)-7-hydroxy-1-{[4-(2-morpholin-4-ylethyl)piperazin-1-yl]methyl}-3,7-dihydro-6H-pyrrolo[2,3-c]-1,7-naphthyridin-6-one] | 22 | – | –
CN(Cc1cnn(-c2ccccc2)c1)Cc1cn(Cc2ccc(F)cc2)c2cnc3c(=O)n(O)ccc3c12 [Example 59, 3-(4-fluorobenzyl)-7-hydroxy-1-({methyl[(1-phenyl-1H-pyrazol-4-yl)methyl]amino}methyl)-3,7-dihydro-6H-pyrrolo[2,3-c]-1,7-naphthyridin-6-one] | 19 | – | –
